# Tested on: dopaminergic neurons
# Assay: MPTP Model of Parkinson's Disease in Mice
# Format: in vivo
# Conditions: recovery of TH-stained dopaminergic neurons in striatum; MPTP 30 mg/kg i.p. 5 days; test compound 4 mg/kg s.c., concurrent dosing paradigm
# Protocol: MPTP lesioning of dopaminergic neurons in mice is used as an animal model of Parkinson's Disease. Four week old male CD1 white mice are dosed i.p. with 30 mg/kg of MPTP for 5 days. Test compounds (4 mg/kg), or vehicle, are administered s.c. along with the MPTP for 5 days, as well as for an additional […] following cessation of MPTP treatment. At 18 days following MPTP treatment, the animals are sacrificed and the striata dissected and perfusion-fixed. Immunostaining is performed on saggital and coronal brain sections using anti-tyrosine hydroxylase […] to quantitate survival and recovery of dopaminergic neurons. In animals treated with MPTP and vehicle, a substantial loss of functional dopaminergic terminals is observed as compared to non-lesioned animals. Lesioned animals receiving test compounds show a significant recovery of TH-stained dopaminergic neurons. This model presents quantitation for the recovery of TH-positive dopaminergic neurons in the striatum of animals receiving the compounds of the present invention. […]
# Percent striatal innervation density was quantitated in brain sections with an anti-tyrosine hydroxylase immunoglobulin, which is indicative of functional dopaminergic neurons. […]
structure (smiles),measurement,value
"CCC(C)(C)C(=O)C(=O)N1CCS[C@H]1C(=O)O [Compound L, (2S) -1-(3,3-dimethyl-1,2-dioxopentyl) -3-thiazolidine-2-carboxylic acid]",% Recovery,14.0%

# — patent US20020045641A1, “Multiple heteroatom containing heterocyclic ring compounds substituted with carboxylic acids and isosteres thereof” (priority 1998, published 2002)
